Results taken from patent US20130267522A1, “METHODS FOR TREATING CANCER” (priority 2012, published 2013).

System: naturally-occurring InvTCC
Assay: Study of folate-vinblastine conjugate in dogs with naturally-occurring InvTCC (tumor response)
Format: in vivo
Settings: IV once weekly, dose escalation from 0.2 mg/kg
Description: A study was performed in dogs with naturally-occurring InvTCC to investigate antitumor activity and toxicity of folate targeted vinblastine treatment. The study of folate targeted vinblastine was performed in privately owned dogs with naturally-occurring InvTCC at the Purdue University Veterinary Teaching Hospital (PUVTH), Inclusion criteria for dogs in the study included: measurable, histologically-confirmed InvTCC; positive folate uptake detected by scintigraphy or FR expression observed in the tumor via IHC; expected survival of at least 6 weeks; and written dog owner consent. The study was open to dogs that had failed other therapies or who were not eligible for standard therapy.
The folate-vinblastine conjugate EC0905 was used. Briefly, EC0905 is a water-soluble folate conjugate of desacetylvinblastine monohydrazide (DA VLBH), which is constructed with the DA VLBH drug moiety attached to a hydrophilic folate-peptide compound via an endosome-cleavable disulfide bond (FIG. 1). A dose escalation study was performed. EC0905 was administered IV once weekly (starting dose 0.2 mg/kg), Dose escalation was performed within and between dogs with at least 3 dogs in each dose group, and at least 6 dogs treated at the maximum tolerated dose (MTD) (increased by 0.02 mg/kg in each dose group). Toxicity was assessed by CBCs, serum chemistry profiles, urinalyses, physical exams, and owner observations. Toxicity was classified by Veterinary Cooperative Oncology Group (VCOG) criteria.
The EC0905 dose was reduced by 10% if grade 2 toxicity was noted, and by 20% if grade 3 or higher toxicity occurred. Treatment was delayed by one week if the neutrophil count was<3000/mm^3 or platelet count <100,000/mm^3 the day treatment was due. The treatment protocol was scheduled to continue until 8 weeks beyond complete remission, or until cancer progression, or until unacceptable toxicity was noted.
Physical exam, medical history, and CBC were obtained weekly. Monthly evaluation included CBC, serum biochemical profile, urinalysis, urinary tract ultrasound, and mapping of the bladder masses by ultrasound. Urinary tumors were measured by a single ultrasound operator, and estimated tumor volume was recorded. Prior to treatment and at 8-week intervals, complete tumor staging (thoracic radiography, full abdominal ultrasonography) was performed, and tumor stage determined by the World Health Organization criteria for canine urinary bladder tumors. Tumor response was defined as: complete remission (no cancer detected), partial remission (PR, ≧50% decrease in tumor volume and no new tumor lesions), stable disease (SD, <50% change in tumor volume and no new tumor lesions), and progressive disease (PD, ≧50% increase in tumor volume or the development of new tumor lesions).

Pte-γGlu-(Glu(1-amino-1-deoxy-D-glucitol)-Glu)3-Glu(1-amino-1-deoxy-D-glucitol)-Cys(S-ethyl-3-(4-desacetylvinblastinyl)hydrazinecarboxylate) [EC0905]
Partial remission (PR), percent of cases: 50%
Partial remission (PR, ≧50% decrease in tumor volume and no new tumor lesions), number of dogs: 5 dogs
Stable disease (SD), percent of cases: 50%
Stable disease (SD, <50% change in tumor volume and no new tumor lesions), number of dogs: 5 dogs
